Source: ChEMBL document CHEMBL1137050, “Design and synthesis of 4-phenyl piperidine compounds targeting the mu receptor” (Bioorg Med Chem Lett, 2004)

Experiments:
Nociceptin receptor [1] = biological target: T1, Nociceptin receptor (Homo sapiens, UniProt P41146); experiment: Agonistic activity determined by ability to stimulate GTP gamma S binding in comparison to nociceptin (N/OFQ); set-up: concentration or dose not given beside the values
[2] = biological target: Mu opioid receptor (Rattus norvegicus) (UniProt P33535); experiment: Partial agonistic activity by its ability to stimulate GTP gamma S binding in comparison to DAMGO
Chain of Mu opioid receptor (Rattus norvegicus) (P33535 whole entry, looked up): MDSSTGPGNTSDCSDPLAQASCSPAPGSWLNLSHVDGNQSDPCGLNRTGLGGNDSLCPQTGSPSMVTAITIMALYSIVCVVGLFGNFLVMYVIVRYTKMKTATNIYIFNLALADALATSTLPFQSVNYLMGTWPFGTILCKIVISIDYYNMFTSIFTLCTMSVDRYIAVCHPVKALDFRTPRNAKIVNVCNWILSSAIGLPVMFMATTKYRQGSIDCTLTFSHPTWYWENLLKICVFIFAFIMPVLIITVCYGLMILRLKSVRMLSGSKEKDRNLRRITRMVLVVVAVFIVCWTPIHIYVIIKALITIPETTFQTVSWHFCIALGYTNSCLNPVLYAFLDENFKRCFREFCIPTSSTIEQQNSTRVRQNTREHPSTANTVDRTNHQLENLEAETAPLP

Mu-type opioid receptor = Mu-type opioid receptor (Homo sapiens, UniProt P35372); experiment: Binding affinity for recombinant human mu-opioid receptor was determined by using [3H]- diprenophine radioligand
Chain of Mu-type opioid receptor (P35372 whole entry): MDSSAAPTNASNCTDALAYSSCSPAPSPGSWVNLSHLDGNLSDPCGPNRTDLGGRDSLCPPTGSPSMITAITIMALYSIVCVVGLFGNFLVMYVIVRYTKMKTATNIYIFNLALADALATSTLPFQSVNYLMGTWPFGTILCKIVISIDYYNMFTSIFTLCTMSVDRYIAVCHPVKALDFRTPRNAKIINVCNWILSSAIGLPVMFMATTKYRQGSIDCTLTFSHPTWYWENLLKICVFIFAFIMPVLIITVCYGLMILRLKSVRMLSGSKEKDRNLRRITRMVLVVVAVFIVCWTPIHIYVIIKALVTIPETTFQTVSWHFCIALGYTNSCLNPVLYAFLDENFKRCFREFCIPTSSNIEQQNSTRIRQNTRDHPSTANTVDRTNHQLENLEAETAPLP

Nociceptin receptor [3] = biological target: T1, Nociceptin receptor; experiment: Binding affinity for opioid receptor like 1 expressed in HEK293 cells; assay type: cell-based
Nociceptin receptor [4] = biological target: T1, Nociceptin receptor; experiment: Partial agonistic activity determined by ability to stimulate GTP gamma S binding in comparison to nociceptin (N/OFQ)
[5] = biological target: Nociceptin receptor (Rattus norvegicus) (UniProt P35370); experiment: Partial Agonistic activity by its ability to stimulate NOP in comparison to DAMGO; assay type: functional
Chain of Nociceptin receptor (Rattus norvegicus) (P35370 whole entry): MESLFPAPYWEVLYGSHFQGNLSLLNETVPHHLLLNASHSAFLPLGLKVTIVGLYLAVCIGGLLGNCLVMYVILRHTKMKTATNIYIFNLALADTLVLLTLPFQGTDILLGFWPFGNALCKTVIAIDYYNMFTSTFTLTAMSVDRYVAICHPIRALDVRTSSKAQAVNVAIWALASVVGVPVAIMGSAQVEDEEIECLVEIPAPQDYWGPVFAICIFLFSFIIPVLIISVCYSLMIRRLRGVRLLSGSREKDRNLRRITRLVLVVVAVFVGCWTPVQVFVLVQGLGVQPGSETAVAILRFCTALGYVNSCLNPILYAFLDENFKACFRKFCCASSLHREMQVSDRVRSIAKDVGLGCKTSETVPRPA

[6] = biological target: Nociceptin receptor (Rattus norvegicus) (UniProt P35370); experiment: Agonistic activity by its ability to stimulate NOP in comparison to DAMGO; assay type: functional
[7] = biological target: Nociceptin receptor (Rattus norvegicus) (UniProt P35370); experiment: Partial agonistic activity by its ability to stimulate NOP in comparison to DAMGO; assay type: functional

T1 sequence (P41146 whole entry): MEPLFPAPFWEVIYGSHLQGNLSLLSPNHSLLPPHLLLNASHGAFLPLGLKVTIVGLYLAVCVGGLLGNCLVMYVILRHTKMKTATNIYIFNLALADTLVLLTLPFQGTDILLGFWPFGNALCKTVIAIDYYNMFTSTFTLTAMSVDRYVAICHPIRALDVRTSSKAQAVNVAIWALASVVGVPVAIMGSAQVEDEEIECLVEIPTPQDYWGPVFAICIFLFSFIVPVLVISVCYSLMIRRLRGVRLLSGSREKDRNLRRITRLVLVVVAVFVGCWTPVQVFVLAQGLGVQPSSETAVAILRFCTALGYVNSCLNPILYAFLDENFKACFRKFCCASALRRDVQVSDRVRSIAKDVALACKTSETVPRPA

| SMILES | Activity (Nociceptin receptor [1]) | Ki (Mu-type opioid receptor) | Ki (Nociceptin receptor [3]) | further results |
| --- | --- | --- | --- | --- |
| OC1(c2ccc(Cl)c(C(F)(F)F)c2)CCN(CCC(c2ccccc2)c2ccccc2)CC1 | > 75% | – | – | Activity [2]: > 10% |
| [O-][N+]1(Cc2ccc3ccccc3c2)CCC(O)(c2ccc(Cl)c(C(F)(F)F)c2)CC1 (stereo not drawn) | – | > 10000 nM | > 10000 nM | – |
| OC1(c2ccc(Cl)cc2)CCN(CCC(c2ccccc2)c2ccccc2)CC1 | – | 37 nM | 372 nM | Activity (Nociceptin receptor [4]): > 10%; Activity [5]: > 10% |
| CN(C)C(=O)C(CCN1CCC(O)(c2ccc(Cl)cc2)CC1)(c1ccccc1)c1ccccc1 [LOPERAMIDE] | > 75% | – | > 10000 nM | – |
| COC(=O)C(CCN1CCC(O)(c2ccc(Cl)c(C(F)(F)F)c2)CC1)(c1ccccc1)c1ccccc1 | > 75% | 0.3 nM | 149 nM | Activity [6]: > 75% |
| OC1(c2ccc(Cl)c(C(F)(F)F)c2)CCN(Cc2ccc(C(F)(F)F)cc2)CC1 | – | 104 nM | – | Activity (Nociceptin receptor [4]): > 10% |
| CN(C)C(=O)C(CCN1CCC(O)(c2cccc(C(F)(F)F)c2)CC1)(c1ccccc1)c1ccccc1 | > 75% | 0.16 nM | 505 nM | Activity [6]: > 75% |
| COC(=O)C(CCN1CCC(O)(c2ccc(Cl)cc2)CC1)(c1ccccc1)c1ccccc1 | > 75% | 0.23 nM | 590 nM | Activity [6]: > 75% |
| [O-][N+]1(CCC(c2ccccc2)c2ccccc2)CCC(O)(c2ccc(Cl)c(C(F)(F)F)c2)CC1 (stereo not drawn) | – | > 10000 nM | > 10000 nM | – |
| OC1(c2cccc(C(F)(F)F)c2)CCN(CCC(c2ccccc2)c2ccccc2)CC1 | > 75% | – | – | Activity [6]: > 75% |
| COC(=O)C(CCN1CCC(O)(c2cccc(C(F)(F)F)c2)CC1)(c1ccccc1)c1ccccc1 | > 75% | 0.11 nM | 78 nM | Activity [6]: > 75% |
| O=C(O)C(CCN1CCC(O)(c2cccc(C(F)(F)F)c2)CC1)(c1ccccc1)c1ccccc1 | > 75% | 331 nM | > 10000 nM | – |
| OC1(c2ccc(Cl)c(C(F)(F)F)c2)CCN(Cc2ccc3ccccc3c2)CC1 | – | 2.5 nM | – | Activity [7]: > 10% |
| N#Cc1ccc(CN2CCC(O)(c3ccc(Cl)c(C(F)(F)F)c3)CC2)cc1 | – | > 10000 nM | – | – |
| [O-][N+]1(CCC(c2ccccc2)c2ccccc2)CCC(O)(c2cccc(C(F)(F)F)c2)CC1 (stereo not drawn) | – | 8130 nM | > 10000 nM | – |
| O=C(O)C(CCN1CCC(O)(c2ccc(Cl)c(C(F)(F)F)c2)CC1)(c1ccccc1)c1ccccc1 | > 75% | 489 nM | > 10000 nM | – |
| O=C(O)C(CCN1CCC(O)(c2ccc(Cl)cc2)CC1)(c1ccccc1)c1ccccc1 | > 75% | – | > 10000 nM | – |
| CN(C)C(=O)C(CCN1CCC(O)(c2ccc(Cl)c(C(F)(F)F)c2)CC1)(c1ccccc1)c1ccccc1 [FLUPERAMIDE] | > 75% | 0.11 nM | 2150 nM | – |
